Data set [1] is described as follows: Cleavage at 95° C. of aza-anthranilate amides and release of phenylethylamine under hot start PCR conditions (LCMS/HPLC monitoring). It counts as physicochemical. Particulars: 60 mM Tris pH 9 PCR buffer. As to the method:
Into a 1.5 mL tube are added: 20 μL 2.5 mM amide solution (10, 14 or 19) in DMSO and 180 μL of a buffer conventionally used in a genetic material amplification reaction (60 mM Tris pH 9, 50 mM […], 1 mM MgCl2). The mixture is then stirred at 95° C. in a thermomixer. LCMS monitoring (condition 1) is performed at t=15 min, 30 min, and 1 h
Thermal deprotection of the phenoxyacetate group leads to formation of the corresponding benzyl alcohol (see Diagram 7). The nucleophilic attack of alcohol on the carbonyl involved in the amide bond then allows releasing the phenylethylamine into the medium by generating the corresponding lactone.
This derivative can then be cyclized to form the corresponding […] by releasing phenylethylamine into the medium (Diagram 9 above).

Data set [2] has as its target T1, Human hemoglobin (Homo sapiens, UniProt P68871+P69905).
T1 construct: purchased Sigma H7379
In words: Reversible acylation of hemoglobin by compound 13 (HPLC profile). The format is biochemical. As to the method: The mixtures are created as described below, where experiments AL600 1× to AL 600 0.25× respectively correspond to 33 μg hemoglobin reacted with increasing concentrations of the azaisatoic compound in a mixture of DMSO and PBS at pH 7.4 (PBS=Phosphate buffered saline resulting from dissolving a tablet, reference Sigma P4417, in 200 ml water (pH 7.4)) The mixtures are incubated at room temperature for 2 hours before collecting an aliquot for HPLC analysis on a Waters XBridge BEH C4 300 column (Milford. USA), with a gradient of 20 to 72% acetonitrile in a solution of 10 mM trifluoroacetic acid, at 120 min.
One can clearly see, as before, that acylation of the hemoglobin leads to formation of a mass of acylated protein and then this mass disappears after heat treatment in order to regenerate the native protein.

The target in data set [3] is T2, Taq polymerase (Thermus aquaticus, UniProt P19821).
T2 construct: purchased Genscript E00012
In words: Polymerase activity of TAQ modified by compound 13 (hairpin probe elongation fluorescence). It counts as biochemical. To be noted: AL 604 0.375x. As to the method:
We used the Genscript Taq (2500 u/100 μl REF E00012), but in order to eliminate all traces of nucleophiles in this enzyme we did a change of buffer beforehand by passing through an Amicon 10 KD microcon (no. 42407). The enzyme suspension was thus deposited on the microcon and centrifuged until buffer depletion Five washes were performed with […] PBS pH 7.4, then the last retentate was recovered by inverting the tube and made up to QSP 20 μl with PBS to obtain a suspension at 125 u/μl. […]
The polymerization activity of the TAQ polymerase is determined using an oligonucleotide probe of 45 bases terminated by a “hairpin” structure. This is characterized by the presence of a fluorescence quencher at the beginning of the structure and a fluorophore at the end of the probe sequence, such that the quencher is spatially close to the fluorophore and no fluorescence signal can be measured in this configuration. […] Due to the elongation action, the probe hairpin structure is unfolded and the fluorophore is able to emit, and fluorescence is then measurable. This fluorescence measurement is carried out at a temperature of 60° C. for 20 minutes in the presence of the reagents required for activity of the enzyme, meaning dNTP, MgCl2, and a basic buffer at pH 9.5. […]
The ability to restore the activity of the enzyme after heating for 15 min at 95° C. for example is readily measurable by the same method.

T2 sequence (P19821 whole entry): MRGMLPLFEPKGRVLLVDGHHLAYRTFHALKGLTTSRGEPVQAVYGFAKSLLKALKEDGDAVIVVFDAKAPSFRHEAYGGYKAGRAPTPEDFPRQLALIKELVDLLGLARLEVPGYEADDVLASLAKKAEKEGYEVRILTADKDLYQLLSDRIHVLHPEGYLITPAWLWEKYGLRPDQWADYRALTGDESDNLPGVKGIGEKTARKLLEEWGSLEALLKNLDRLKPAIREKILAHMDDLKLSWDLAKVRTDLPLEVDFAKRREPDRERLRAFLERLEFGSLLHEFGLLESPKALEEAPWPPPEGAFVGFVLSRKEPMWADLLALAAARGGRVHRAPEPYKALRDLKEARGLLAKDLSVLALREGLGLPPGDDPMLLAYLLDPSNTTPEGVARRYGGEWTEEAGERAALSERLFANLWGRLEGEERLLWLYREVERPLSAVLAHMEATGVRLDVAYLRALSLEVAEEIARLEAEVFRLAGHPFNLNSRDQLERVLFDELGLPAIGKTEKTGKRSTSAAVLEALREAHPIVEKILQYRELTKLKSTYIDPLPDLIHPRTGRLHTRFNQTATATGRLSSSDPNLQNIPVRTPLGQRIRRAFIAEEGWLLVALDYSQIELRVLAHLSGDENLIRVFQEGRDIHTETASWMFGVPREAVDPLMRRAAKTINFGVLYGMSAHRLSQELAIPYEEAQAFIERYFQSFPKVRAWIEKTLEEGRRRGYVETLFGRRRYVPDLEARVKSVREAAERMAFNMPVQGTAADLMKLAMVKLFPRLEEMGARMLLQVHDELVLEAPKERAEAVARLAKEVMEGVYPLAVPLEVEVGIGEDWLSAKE
T1 sequence (P69905 2-142 limits assumed): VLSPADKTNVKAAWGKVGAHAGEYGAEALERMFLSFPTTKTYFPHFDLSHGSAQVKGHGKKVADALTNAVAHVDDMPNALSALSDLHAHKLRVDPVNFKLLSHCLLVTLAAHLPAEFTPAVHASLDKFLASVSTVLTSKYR
T1 sequence (P68871 2-147 limits assumed): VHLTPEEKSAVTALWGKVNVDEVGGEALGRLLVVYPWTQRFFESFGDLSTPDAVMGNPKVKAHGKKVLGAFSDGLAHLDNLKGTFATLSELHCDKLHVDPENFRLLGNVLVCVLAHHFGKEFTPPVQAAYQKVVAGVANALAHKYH

For `CNc1ncc(I)c(COC(=O)COc2ccccc2)c1C(=O)NCCc1ccccc1` [derivative 10, (5-iodo-2-(methylamino)-3-(phenethylcarbamoyl)pyridine-4-yl)methyl 2-phenoxyacetate], the “species observed by HPLC after heating (cleavage of the amide derivative)” value in data set [1] (15 minutes at 95° C., 10% DMSO) is “formation of the deprotected alcohol and the expected lactone”. Moreover, in data set [1] (1 h at 95° C.), the “population of the initial amide and the alcohol” value is reported as “almost completely disappeared”.
Take `CNc1ncc(I)c(COC(=O)COc2ccc(F)cc2)c1C(=O)NCCc1ccccc1` [derivative 14, (5-iodo-2-(methylamino)-3-(phenethylcarbamoyl)pyridine-4-yl)methyl 2-(4-fluorophenoxy)acetate]: the amide population result is recorded as “very low” in data set [1] (15 minutes at 95° C.) and “almost completely disappeared” in data set [1] (30 minutes at 95° C.).
`Cn1c(=O)oc(=O)c2c(COC(=O)COc3ccc(F)cc3)c(I)cnc21` [compound 13, (6-iodo-1-methyl-2,4-dioxo-2,4-dihydro-1H-pyrido[2,3-d][1,3]oxazine-5-yl) methyl 2-(4-fluorophenoxy)acetate]: the “acylation of hemoglobin (HPLC chromatogram)” value in data set [2] (33 μg hemoglobin, AL 600 0.25x-1x, DMSO/PBS pH 7.4, room temperature, 2 hours) is reported as “disappearance of the protein portion in favor of a massive shift to the right”. Moreover, the “reversal of the acylation of hemoglobin after heat treatment (HPLC chromatogram)” value in data set [2] (AL 600 1x, 95° C. for 15 min in PCR buffer (Tris pH9), taken up in 8M GuHCl) is on record as “restoring the chromatographic profile of the native hemoglobin”. Moreover, the “polymerase activity of Taq after acylation, without activation” value in data set [3] (625 units Taq, DMSO/PBS pH 7.4, 3 hours room temperature, measured at 60° C. for 20 minutes) is on record as “completely inactivated”. Also, the “polymerase activity of Taq after acylation and heat activation” value in data set [3] (after treatment at 95° C. for 15 min under hot start PCR conditions) was “restored”.
As for `CNc1ncc(I)c(CNC(=O)OC(C)(C)C)c1C(=O)NCCc1ccccc1` [derivative 19, tert-butyl ((5-iodo-2-(methylamino)-3-(phenethylcarbamoyl)pyridine-4-yl)methyl)carbamate], in data set [1] (95° C.), the “non-cyclized deprotected form (intermediate amine) on HPLC monitoring” value is on record as “not detected”.

Source of the values: patent US11708375B2, “Reagents for reversibly protecting biological molecules” (BIOMÉRIEUX, priority 2016, dated 2023).
